Tested on: B. subtilis 3610
Assay type: cell-based, Bacillus subtilis

Structure (SMILES) | effect on inhibition of B. subtilis growth in co-culture with S. elongatus
CN(C)C(=O)Nc1ccc(Cl)c(Cl)c1 [DCMU, 3-(3,4-dichlorophenyl)-1,1-dimethylurea] | mitigated
O=S(O)(O)=S [thiosulfate] | mitigated

From patent publication US20190218531A1 (priority 2018, published 2019)
